This test has as its system DUX4 expression (surrogate marker MBD3L2). In words: Screening: qPCR analysis of DUX4 target gene MBD3L2 in differentiating MB200 FSHD2 muscle cells. Particulars: Homo sapiens, 40 hours, DUX4 expression inferred from surrogate marker MBD3L2 expression (qPCR, normalized to RPL30). The class given is cell-based. How it is done: Cells and Cell Culture. Primary human myoblast cell lines, immortalized by retroviral transduction of cyclin-dependent kinase 4 (CDK4) and human telomerase reverse transcriptase (hTERT) (Stadler, et al., 2011), were obtained from the Fields Center at the University of Rochester (world-wide-web at urmc.rochester.edu/fields-center.aspx). Immortalized myoblasts were grown in Ham's F-10 Nutrient Mix (Gibco, Waltham, MA, USA) supplemented with 20% HyClone Fetal Bovine Serum (GE Healthcare Life Sciences, Pittsburgh, PA, USA), 100 U/100 μg penicillin/streptomycin (Gibco), 10 ng/ml recombinant human fibroblast growth factor (Promega Corporation, Madison, WI, USA) and 1 μM dexamethasone (Sigma-Aldrich). Differentiation of myoblasts into myotubes was achieved by switching the fully confluent myoblast monolayer into Dulbecco's Modified Eagle Medium (DMEM) (Gibco) containing 1% horse serum (Gibco), 100 U/100 μg penicillin/streptomycin, 10 μg/ml insulin (Sigma-Aldrich) and 10 μg/ml transferrin (Sigma-Aldrich) (HS/IT media) or DMEM:F12 Nutrient Mixture (1:1, Gibco) supplemented with 2% KnockOut Serum Replacement (Gibco), 100 U/100 μg penicillin/streptomycin, 10 μg/ml insulin and 10 μg/ml transferrin (KSR media) for 2-6 days.
Screening: qPCR analysis of DUX4 target genes MBD3L2. For screening compounds, differentiating MB200 FSHD2 muscle cells were exposed to BET inhibitors at a variety of concentrations for 40 hours to determine the effects of the drugs on DUX4 expression. Cell lysates were prepared using Cells-to-Ct Bulk Lysis Reagents (Invitrogen, Waltham, MA, USA). Gene expression was measured by quantitative polymerase chain reaction (qPCR) was carried out on a QuantStudio 5 (Applied Biosystems, Waltham, MA, USA) using TaqMan Gene Expression Assays (Applied Biosystems) and TaqMan Fast Virus 1-Step Master Mix (Invitrogen). The relative expression levels of DUX4 target gene methyl-CpG binding domain protein 3 like 2 (MBD3L2), was normalized to that of the reference gene ribosomal protein L30 (RPL30), which was included in multiplex (two gene) PCR reactions. TaqMan Gene Expression Assay ID numbers: MBD3L2, Hs00544743_m1; RPL30, Hs00265497_m1. Data is expressed as relative expression with the expression in absence of inhibitors set to one.
Analysis of MBD3L2 expression in cultured FSHD2 cells. DUX4 mRNA is present in very low levels, even in differentiating FSHD2 myoblasts, so DUX4 target gene MBD3L2 was used as a surrogate marker of DUX4 expression. FSHD2 patient derived muscle cells were analyzed to determine whether BET inhibitors affect MBD3L2 expression, indicating a reduction in DUX4 expression.
A general note: Real-time PCR tracks product formation cycle by cycle.

Like-named read-outs stand apart in the source and are kept apart here.

From patent publication US12636290B2, “BET inhibitors for modulating DUX4 expression in FSHD” (Saint Louis University, priority 2018, dated 2026) come the findings set out here.

With `C[C@@H]1CN(C)C(=O)CN1CCOc1ccc(-c2ccc3cc(-c4cn(C)c(=O)c5[nH]ccc45)ccc3n2)cc1` [SLU-2286, (R)-4-{2-[4-(2-(2,4-dimethyl-5-oxopiperazin-1-yl)ethoxy)phenyl]quinolin-6-yl}-6-methyl-1H-pyrrolo[2,3-c]pyridin-7(6H)-one], the IC50 reads like this: (read-out: DUX4* MT FSHD2: IC50) 0.063 µM; (read-out: DUX4* MT FSHD2 IC50) 0.063 µM.

For the compound `Cn1cc(-c2ccc(N3CCC4(CCN(C(=O)CO)CC4)C3)nc2)c2cc[nH]c2c1=O` [SLU-2218, 4-{6-[8-(2-hydroxyacetyl)-2,8-diazaspiro[4.5]decan-2-yl]pyridin-3-yl}-6-methyl-1H-pyrrolo[2,3-c]pyridin-7(6H)-one], the IC50 reads like this: (read-out: DUX4* MT FSHD2: IC50) 0.041 µM; (read-out: DUX4* MT FSHD2 IC50) 0.041 µM.

Consider `CN1CCCN(CCOc2ccc(-c3ccc4cc(-c5cn(C)c(=O)c6[nH]ccc56)ccc4n3)cc2)CC1=O` [SLU-2300, 6-methyl-4-{2-[4-(2-(4-methyl-3-oxo-1,4-diazepan-1-yl)ethoxy)phenyl]quinolin-6-yl}-1H-pyrrolo[2,3-c]pyridin-7(6H)-one], for which the IC50 is, setting by setting: (read-out: DUX4* MT FSHD2: IC50) 0.049 µM; (read-out: DUX4* MT FSHD2 IC50) 0.049 µM.

`CCCN1CCN(CCOc2ccc(-c3ccc4cc(-c5cn(C)c(=O)c6[nH]ccc56)ccc4n3)cc2)CC1=O` [SLU-2282, 6-methyl-4-{2-[4-(2-(3-oxo-4-propylpiperazin-1-yl)ethoxy)phenyl]quinolin-6-yl}-1H-pyrrolo[2,3-c]pyridin-7(6H)-one]: the IC50 was found to be 0.054 µM (read-out: DUX4* MT FSHD2: IC50) and 0.054 µM (read-out: DUX4* MT FSHD2 IC50).

`Cn1cc(-c2ccc3cc(-c4ccc(OCCO)nc4)ccc3n2)c2cc[nH]c2c1=O` [SLU-2232, 4-{6-[6-(2-hydroxyethoxy)pyridin-3-yl]quinolin-2-yl}-6-methyl-1H-pyrrolo[2,3-c]pyridin-7(6H)-one]: the IC50 stood at 0.097 µM (read-out: DUX4* MT FSHD2: IC50) and 0.097 µM (read-out: DUX4* MT FSHD2 IC50).

Take `COc1cc(-c2ccc(OCCN3[C@H](C)CN(C(C)=O)C[C@@H]3C)cc2)ccc1-c1cn(C)c(=O)c2[nH]ccc12` [SLU-2098, 4-{4′-[2-((2R,6S)-4-acetyl-2,6-dimethylpiperazin-1-yl)ethoxy)-3-methoxy-[1,1′-biphenyl]-4-yl}-6-methyl-1H-pyrrolo[2,3-c]pyridin-7(6H)-one]: the IC50 is, setting by setting: (read-out: DUX4* MT FSHD2: IC50) 0.31 µM; (read-out: DUX4* MT FSHD2 IC50) 0.31 µM.

`C[C@@H]1C(=O)N(C)CCN1CCOc1ccc(C2CCN(c3ccc(-c4cn(C)c(=O)c5[nH]ccc45)cn3)CC2)cc1` [SLU-2089, (R)-4-{6-[4-(4-(2-(2,4-dimethyl-3-oxopiperazin-1-yl)ethoxy)phenyl)piperidin-1-yl]pyridin-3-yl}-6-methyl-1H-pyrrolo[2,3-c]pyridin-7(6H)-one]: the IC50 came out at 0.0048 µM (read-out: DUX4* MT FSHD2: IC50) and 0.0048 µM (read-out: DUX4* MT FSHD2 IC50).

Regarding `C[C@@H]1C(=O)N(C)CCN1CCOc1ccc(-c2ccc3cc(-c4c[nH]c(=O)c5[nH]ccc45)ccc3n2)cc1` [SLU-2302, (R)-4-{2-[4-(2-(2,4-dimethyl-3-oxopiperazin-1-yl)ethoxy)phenyl]quinolin-6-yl}-1H-pyrrolo[2,3-c]pyridin-7(6H)-one], the half-maximal inhibitory concentration (IC50) by setting is: (read-out: DUX4* MT FSHD2: IC50) 1.8 µM; (read-out: DUX4* MT FSHD2 IC50) 1.8 µM.

Consider `C[C@@H]1C(=O)N(C)CCN1CCOc1ccc(-c2cc3ccc(-c4cn(C)c(=O)c5[nH]ccc45)cc3cn2)cc1` [SLU-2217, (R)-4-{3-[4-(2-(2,4-dimethyl-3-oxopiperazin-1-yl)ethoxy)phenyl]isoquinolin-7-yl}-6-methyl-1H-pyrrolo[2,3-c]pyridin-7(6H)-one], for which the IC50 reads like this: (read-out: DUX4* MT FSHD2: IC50) 0.022 µM; (read-out: DUX4* MT FSHD2 IC50) 0.022 µM.

Take `C[C@@H]1C(=O)N(C)CCN1CCOc1ccc(-c2ccc3cc(-c4cn(C)c(=O)c5[nH]ccc45)ncc3c2)cc1` [SLU-2219, (R)-4-{7-[4-(2-(2,4-dimethyl-3-oxopiperazin-1-yl)ethoxy)phenyl]isoquinolin-3-yl}-6-methyl-1H-pyrrolo[2,3-c]pyridin-7(6H)-one]: the IC50 runs as follows: (read-out: DUX4* MT FSHD2: IC50) 0.095 µM; (read-out: DUX4* MT FSHD2 IC50) 0.095 µM.

Take `CN(C)CCOc1ccc(C2CCN(c3ccc(-c4cn(C)c(=O)c5[nH]ccc45)cn3)CC2)cc1` [SLU-2109, 4-{6-[4-(4-(2-(dimethylamino)ethoxy)phenyl)piperidin-1-yl]pyridin-3-yl}-6-methyl-1H-pyrrolo[2,3-c]pyridin-7(6H)-one]: the IC50 came out at 0.033 µM (read-out: DUX4* MT FSHD2: IC50) and 0.033 µM (read-out: DUX4* MT FSHD2 IC50).

For the compound `Cn1cc(-c2ccc3ncccc3c2)c2cc[nH]c2c1=O` [SLU-2298, 6-methyl-4-(quinolin-6-yl)-1H-pyrrolo[2,3-c]pyridin-7(6H)-one], the 50% inhibitory concentration (IC50) by setting is: (read-out: DUX4* MT FSHD2: IC50) 0.113 µM; (read-out: DUX4* MT FSHD2 IC50) 0.113 µM.

Consider `C[C@@H]1CCC[C@H](C)N1CCOc1ccc(-c2ccc3cc(-c4cn(C)c(=O)c5[nH]ccc45)ccc3n2)cc1` [SLU-2233, 4-{2-[4-(2-((2R,6S)-2,6-dimethylpiperidin-1-yl)ethoxy)phenyl]quinolin-6-yl}-6-methyl-1H-pyrrolo[2,3-c]pyridin-7(6H)-one], for which the IC50 reads like this: (read-out: DUX4* MT FSHD2: IC50) 0.29 µM; (read-out: DUX4* MT FSHD2 IC50) 0.29 µM.

Regarding `C[C@@H]1C(=O)N(C)CCN1CCOc1ccc(CCc2ccc(-c3cn(C)c(=O)c4[nH]ccc34)cc2)cc1` [SLU-2227, (R)-4-{4-[4-(2-(2,4-dimethyl-3-oxopiperazin-1-yl)ethoxy)phenethyl]phenyl}-6-methyl-1H-pyrrolo[2,3-c]pyridin-7(6H)-one], the 50% inhibitory concentration (IC50) (read-out: DUX4* MT FSHD2: IC50) was found to be 0.069 µM and the IC50 (read-out: DUX4* MT FSHD2 IC50) came out at 0.069 µM.

On to `COc1ccc2cc(-c3cn(C)c(=O)c4[nH]ccc34)ccc2n1` [SLU-2294, 4-(2-methoxyquinolin-6-yl)-6-methyl-1H-pyrrolo[2,3-c]pyridin-7(6H)-one], for which the IC50 turned out to be 0.059 µM (read-out: DUX4* MT FSHD2: IC50) and 0.059 µM (read-out: DUX4* MT FSHD2 IC50).

In the case of `CN1CCN(CCOc2ccc(-c3ccc4cc(-c5cn(C)c(=O)c6[nH]ccc56)ccc4n3)cc2)CC1=O` [SLU-2244, 6-methyl-4-{2-[4-(2-(4-methyl-3-oxopiperazin-1-yl)ethoxy)phenyl]quinolin-6-yl}-1H-pyrrolo[2,3-c]pyridin-7(6H)-one], the IC50 (read-out: DUX4* MT FSHD2: IC50) was 0.028 µM and the IC50 (read-out: DUX4* MT FSHD2 IC50) was 0.028 µM.

Regarding `CC(=O)N1C[C@@H](C)N(CCOc2ccc(C3CCN(c4ccc(-c5cn(C)c(=O)c6[nH]ccc56)cn4)CC3)cc2)[C@@H](C)C1` [SLU-2090, 4-{6-[4-(4-(2-((2R,6S)-4-acetyl-2,6-dimethylpiperazin-1-yl)ethoxy)phenyl)piperidin-1-yl]pyridin-3-yl}-6-methyl-1H-pyrrolo[2,3-c]pyridin-7(6H)-one], the IC50 by setting is: (read-out: DUX4* MT FSHD2: IC50) 0.043 µM; (read-out: DUX4* MT FSHD2 IC50) 0.043 µM.

Consider `C[C@@H]1C(=O)N(C)CCCN1CCOc1ccc(-c2ccc3cc(-c4cn(C)c(=O)c5[nH]ccc45)ccc3n2)cc1` [SLU-2284, (R)-4-{2-[4-(2-(2,4-dimethyl-3-oxo-1,4-diazepan-1-yl)ethoxy)phenyl]quinolin-6-yl}-6-methyl-1H-pyrrolo[2,3-c]pyridin-7(6H)-one], for which the IC50 (read-out: DUX4* MT FSHD2: IC50) was 0.09 µM and the IC50 (read-out: DUX4* MT FSHD2 IC50) amounted to 0.09 µM.

Regarding `CN1CCN(CCOc2ccc(-c3ccc4nc(-c5cn(C)c(=O)c6[nH]ccc56)ccc4c3)cc2)CC1=O` [SLU-2283, 6-methyl-4-{6-[4-(2-(4-methyl-3-oxopiperazin-1-yl)ethoxy)phenyl]quinolin-2-yl}-1H-pyrrolo[2,3-c]pyridin-7(6H)-one], the IC50 is 0.16 µM (read-out: DUX4* MT FSHD2: IC50) and 0.16 µM (read-out: DUX4* MT FSHD2 IC50).

As for `C[C@@H]1C(=O)N(C)CCN1CCOc1ccc(C2CCN(c3ccc(-c4cn(C)c(=O)c5[nH]ccc45)cc3)CC2)cc1` [SLU-2212, (R)-4-{4-[4-(4-(2-(2,4-dimethyl-3-oxopiperazin-1-yl)ethoxy)phenyl)piperidin-1-yl]phenyl}-6-methyl-1H-pyrrolo[2,3-c]pyridin-7(6H)-one], the IC50 by setting is: (read-out: DUX4* MT FSHD2: IC50) 0.086 µM; (read-out: DUX4* MT FSHD2 IC50) 0.086 µM.

`C[C@@H]1C(=O)N(C)CCN1CCOc1ccc(-c2ccc3nc(-c4cn(C(F)F)c(=O)c5[nH]ccc45)ccc3c2)cc1` [SLU-2325, (R)-6-(difluoromethyl)-4-{6-[4-(2-(2,4-dimethyl-3-oxopiperazin-1-yl)ethoxy)phenyl]quinolin-2-yl}-1H-pyrrolo[2,3-c]pyridin-7(6H)-one]: the IC50 is, setting by setting: (read-out: DUX4* MT FSHD2: IC50) 0.29 µM; (read-out: DUX4* MT FSHD2 IC50) 0.29 µM.

Broadly, the IC50 is the concentration needed to halve the response being measured.
